IC50 data for 25 molecules are collected here from patent US12441736B2, “KIF18A inhibitors” (AMGEN INC., priority 2018, dated 2025).

In this assay the target is T1, Recombinant human KIF18A (1-467 His-tagged) protein (Homo sapiens, UniProt Q8NI77).
T1 construct: Recombinant human KIF18A (1-467 His-tagged) protein; His; made in house
Nature of the assay: KIF18A Enzyme Assay: microtubule-stimulated ATPase activity (ADP-Glo). As to conditions: 30 nM KIF18A, 30 μg/mL pig microtubules, 75 μM ATP, ADP-Glo luminescence. The format is biochemical. An excerpt: KIF18A Enzyme Assay: Microtubule-stimulated ATPase activity assay is used to measure KIF18A enzyme activity after treatment with compound. Compounds were 2-fold serially diluted in DMSO (Sigma Inc) over 22-point concentration range. Recombinant human KIF18A (1-467 His-tagged) protein was expressed using a baculovirus system and purified by affinity chromatography by Amgen Inc. Concentrations of KIF18A protein, microtubules (MT), and ATP in the reaction were optimized for standardized homogenous enzyme assay using ADP-Glo™ Kinase/ATPase Assay Kit (Promega Inc). The assay measures ADP formed from the ATPase reaction. Prepare reaction buffer [(15 mM Tris, pH 7.5 (Teknova Inc), 10 mM MgCl2 (IT Baker Inc), 0.01% Pluronic F-68 (Life Technologies Inc), 1 μM Taxol (Cytoskeleton Inc), and 30 μg/mL pig microtubules (Cytoskeleton Inc)]. Add compound and KIF18A protein (30 nM) to prepared reaction buffer and incubated for 15 minutes at room temperature, next add ATP (at Kin, 75 μM) to the reaction mixture and incubated for an additional 15 minutes at room temperature. Mix 5 μl of ADP-Glo™ Reagent and 2.5 μl of the reaction mixture and incubate for 40 minutes at room temperature. Add 10 μl ADP-Glo™ Detection Reagent and incubate for 40 minutes at room temperature. Read luminescence using EnVision microplate reader with ultra-luminescence module (Perkin Elmer Inc). Concentration-response curve-fitting and IC50 determination was performed using Genedata Screener Software (Standard 15.0.1, Genedata Inc) with a four-parameter logistic regression fit model.
Table A provides data for compounds exemplified in the present application and priority document thereof, as representative compounds of the present invention, as follows: chemical name (as named by either ACD software or ChemDraw (Professional 15.0)) and biological data (IC50 in μM). Ex. # refers to Example No.

SMILES strings stand for the structures.

T1 sequence (Q8NI77 1-467): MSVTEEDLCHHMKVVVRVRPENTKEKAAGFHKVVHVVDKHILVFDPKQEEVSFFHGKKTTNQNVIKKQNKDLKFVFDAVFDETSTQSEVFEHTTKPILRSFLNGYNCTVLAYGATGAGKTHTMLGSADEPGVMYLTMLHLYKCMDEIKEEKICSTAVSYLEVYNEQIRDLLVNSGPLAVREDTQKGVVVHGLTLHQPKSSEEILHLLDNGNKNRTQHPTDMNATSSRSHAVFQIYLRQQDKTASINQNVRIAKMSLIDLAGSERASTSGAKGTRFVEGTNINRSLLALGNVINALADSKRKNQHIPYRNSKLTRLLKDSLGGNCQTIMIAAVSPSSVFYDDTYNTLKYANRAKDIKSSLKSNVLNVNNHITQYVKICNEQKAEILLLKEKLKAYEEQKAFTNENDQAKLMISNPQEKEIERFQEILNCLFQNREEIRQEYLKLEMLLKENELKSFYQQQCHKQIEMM
T1 sequence (P02550 whole entry partner): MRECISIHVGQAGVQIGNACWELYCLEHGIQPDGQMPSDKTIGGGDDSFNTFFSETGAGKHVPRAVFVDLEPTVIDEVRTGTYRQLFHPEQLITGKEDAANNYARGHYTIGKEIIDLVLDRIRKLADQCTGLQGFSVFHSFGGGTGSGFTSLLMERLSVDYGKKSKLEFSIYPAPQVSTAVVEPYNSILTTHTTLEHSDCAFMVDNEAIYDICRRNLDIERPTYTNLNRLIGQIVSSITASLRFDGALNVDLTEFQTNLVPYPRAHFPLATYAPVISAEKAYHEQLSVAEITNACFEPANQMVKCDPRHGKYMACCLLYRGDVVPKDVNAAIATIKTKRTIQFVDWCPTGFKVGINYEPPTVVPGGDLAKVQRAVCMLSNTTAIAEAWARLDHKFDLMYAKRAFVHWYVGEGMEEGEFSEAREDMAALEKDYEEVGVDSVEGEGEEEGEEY
T1 sequence (P02554 whole entry partner): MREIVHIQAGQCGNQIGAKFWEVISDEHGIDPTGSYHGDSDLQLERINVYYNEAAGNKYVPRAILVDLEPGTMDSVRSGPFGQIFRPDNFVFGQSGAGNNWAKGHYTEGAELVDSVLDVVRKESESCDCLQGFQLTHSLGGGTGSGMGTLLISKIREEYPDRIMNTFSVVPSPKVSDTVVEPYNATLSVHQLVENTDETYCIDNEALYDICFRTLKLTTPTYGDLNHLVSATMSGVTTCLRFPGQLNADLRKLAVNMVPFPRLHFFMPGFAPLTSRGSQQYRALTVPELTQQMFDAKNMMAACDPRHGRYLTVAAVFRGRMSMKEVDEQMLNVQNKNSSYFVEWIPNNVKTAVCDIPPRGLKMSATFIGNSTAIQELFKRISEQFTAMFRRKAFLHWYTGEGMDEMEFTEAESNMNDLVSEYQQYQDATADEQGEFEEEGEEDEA

Take `C[C@H]1CCN(c2cccc(NC(=O)c3ccc(NC(C)(C)CO)nc3N3CCC4(CC3)CC4)n2)C1` [Example 139, 2-(6-azaspiro[2.5]oct-6-yl)-6-((1-hydroxy-2-methyl-2-propanyl)amino)-N-(6-((3S)-3-methyl-1-pyrrolidinyl)-2-pyridinyl)-3-pyridinecarboxamide]: the IC50 came to 89.3 nM.
`CC1(C)COC(=O)N1c1cccc(NC(=O)c2ccc(N3C(=O)OCC3(C)C)nc2N2CCC3(CC2)CC3)n1` [Example 161, 2-(6-azaspiro[2.5]octan-6-yl)-6-(4,4-dimethyl-2-oxo-1,3-oxazolidin-3-yl)-N-(6-(4,4-dimethyl-2-oxo-1,3-oxazolidin-3-yl)-2-pyridinyl)-3-pyridinecarboxamide]: the IC50 was found to be 2190 nM.
The result for `C[C@@H]1CN(c2cccc(NC(=O)c3cnc(NC(C)(C)CO)cc3N3CCC4(CC3)CC4)n2)CCO1` [Example 243, (R)-6-((1-hydroxy-2-methylpropan-2-yl)amino)-N-(6-(2-methylmorpholino)pyridin-2-yl)-4-(6-azaspiro[2.5]octan-6-yl)nicotinamide] reads 440 nM; that for `CCN1CCN(c2cccc(NC(=O)c3ccc(NC(C)(C)CO)nc3N3CCC4(CC3)CC4)n2)CC1` [Example 192, 2-(6-azaspiro[2.5]octan-6-yl)-N-(6-(4-ethyl-1-piperazinyl)-2-pyridinyl)-6-((1-hydroxy-2-methyl-2-propanyl)amino)-3-pyridinecarboxamide], 1090 nM; that for `C[C@@H]1CN(c2cccc(NC(=O)c3ccc(N4CC(O)CC4(C)C)nc3N3CCC4(CC3)CC4)n2)CCO1` (stereo partly drawn) [Example 213, 6-(4-hydroxy-2,2-dimethylpyrrolidin-1-yl)-N-(6-((R)-2-methylmorpholino)pyridin-2-yl)-2-(6-azaspiro[2.5]octan-6-yl)nicotinamide], 523 nM.
The result for `C[C@@H]1CN(c2cccc(NC(=O)c3ccc(CS(C)(=O)=O)nc3N3CCC4(CC3)CC4)n2)CCO1` [Example 239, 2-(6-azaspiro[2.5]octan-6-yl)-N-(6-((2R)-2-methyl-4-morpholinyl)-2-pyridinyl)-6-((methylsulfonyl)methyl)-3-pyridinecarboxamide] reads 68.1 nM; that for `CC(C)(C)NS(=O)(=O)c1cccc(NC(=O)c2ncc(NC(C)(CO)CO)nc2N2CCC3(CC2)CC3)n1` [Example 108, N-(6-(N-(tert-butyl)sulfamoyl)pyridin-2-yl)-5-((1,3-dihydroxy-2-methylpropan-2-yl)amino)-3-(6-azaspiro[2.5]octan-6-yl)pyrazine-2-carboxamide], 87.8 nM; that for `C[C@@H]1CN(c2cccc(NC(=O)c3ccc(NC(C)(CO)CO)nc3N3CCC4(CC3)CC4)n2)CCO1` [Example 147, (R)-6-((1,3-dihydroxy-2-methylpropan-2-yl)amino)-N-(6-(2-methylmorpholino)pyridin-2-yl)-2-(6-azaspiro[2.5]octan-6-yl)nicotinamide], 53.4 nM.
The value for `O=C(Nc1cccc(N2CCOCC2)n1)c1ccc([C@](O)(CO)C(F)(F)F)nc1N1CCC2(CC1)CC2` (single isomer, unassigned) [Example 202] was 68.4 nM; that for `O=C(Nc1cccnc1N1CCC2(CC1)CC2)c1cccc(N2CCOCC2)n1` [Example 245, N-(2-(6-azaspiro[2.5]oct-6-yl)-3-pyridinyl)-6-(4-morpholinyl)-2-pyridinecarboxamide] was 860 nM; that for `CC(C)(CO)Nc1ccc(C(=O)Nc2cccc(N3CCO[C@H](CO)C3)n2)c(N2CCC3(CC2)CC3)n1` [Example 189, 2-(6-azaspiro[2.5]octan-6-yl)-N-(6-((2S)-2-(hydroxymethyl)-4-morpholinyl)-2-pyridinyl)-6-((1-hydroxy-2-methyl-2-propanyl)amino)-3-pyridinecarboxamide] was 110 nM.
Regarding `Cc1cc(NC(=O)c2ccc(NC(C)(C)CO)nc2N2CCC3(CC2)CC3)nc(S(=O)(=O)NC(C)(C)C)c1` [Example 157, 2-(6-azaspiro[2.5]octan-6-yl)-6-((1-hydroxy-2-methyl-2-propanyl)amino)-N-(4-methyl-6-((2-methyl-2-propanyl)sulfamoyl)-2-pyridinyl)-3-pyridinecarboxamide], the IC50 amounted to 206 nM.
`C[C@H]1CCN(c2cccc(NC(=O)c3ncc(NC(C)(C)CO)nc3N3CCC4(CC3)CC4)n2)C1` [Example 105, 3-(6-azaspiro[2.5]oct-6-yl)-5-((1-hydroxy-2-methyl-2-propanyl)amino)-N-(6-((3S)-3-methyl-1-pyrrolidinyl)-2-pyridinyl)-2-pyrazinecarboxamide]: the IC50 came to 122 nM.
On to `CC(C)(C)NS(=O)(=O)c1cccc(NC(=O)c2ccc(C(F)(CO)CO)nc2N2CCC3(CC2)CC3)n1` [Example 194, 2-(6-azaspiro[2.5]octan-6-yl)-6-(2-fluoro-1,3-dihydroxy-2-propanyl)-N-(6-((2-methyl-2-propanyl)sulfamoyl)-2-pyridinyl)-3-pyridinecarboxamide], for which the IC50 came out at 283 nM.
With `O=C(Nc1cccc(N2CCOCC2)n1)c1ccc([C@@](O)(CO)C(F)(F)F)nc1N1CCC2(CC1)CC2` (single isomer, unassigned) [Example 201], the IC50 is 76.9 nM.
For `CC(C)(CO)Nc1ccc(C(=O)Nc2cccc(N3CC(F)C3)n2)c(N2CCC3(CC2)CC3)n1` [Example 144, 2-(6-azaspiro[2.5]oct-6-yl)-N-(6-(3-fluoro-1-azetidinyl)-2-pyridinyl)-6-((1-hydroxy-2-methyl-2-propanyl)amino)-3-pyridinecarboxamide], the IC50 turned out to be 76.5 nM.
The result for `CC(C)(CO)Nc1ccc(C(=O)Nc2cccc(N3CCC(O)CC3)n2)c(N2CCC3(CC2)CC3)n1` [Example 215, 2-(6-azaspiro[2.5]octan-6-yl)-6-((1-hydroxy-2-methyl-2-propanyl)amino)-N-(6-(4-hydroxy-1-piperidinyl)-2-pyridinyl)-3-pyridinecarboxamide] reads 330 nM.
The value for `C[C@@H]1COCCN1c1cccc(NC(=O)c2ccc(NC(C)(C)CO)nc2N2CCC3(CC2)CC3)n1` [Example 179, 2-(6-azaspiro[2.5]octan-6-yl)-6-((1-hydroxy-2-methyl-2-propanyl)amino)-N-(6-((3R)-3-methyl-4-morpholinyl)-2-pyridinyl)-3-pyridinecarboxamide] was 98 nM; that for `CC(C)(C)NS(=O)(=O)c1cccc(NC(=O)c2ncc(N3C(=O)OCC3(C)C)nc2N2CCC3(CC2)CC3)n1` [Example 119, 3-(6-azaspiro[2.5]octan-6-yl)-5-(4,4-dimethyl-2-oxo-1,3-oxazolidin-3-yl)-N-(6-((2-methyl-2-propanyl)sulfamoyl)-2-pyridinyl)-2-pyrazinecarboxamide] was 817 nM.
On to `CC(C)(CO)Nc1ccc(C(=O)Nc2cc(C#N)cc(N3CCOCC3)n2)c(N2CCC3(CC2)CC3)n1` [Example 156, 2-(6-azaspiro[2.5]octan-6-yl)-N-(4-cyano-6-(4-morpholinyl)-2-pyridinyl)-6-((1-hydroxy-2-methyl-2-propanyl)amino)-3-pyridinecarboxamide], for which the IC50 is 116 nM.
For the molecule `C[C@H]1CN(c2cccc(NC(=O)c3ccc(NC(C)(C)CO)nc3N3CCC4(CC3)CC4)n2)[C@@H](C)CO1` (racemic) [Example 199, N-(6-((2S,5S)-2,5-dimethylmorpholino)pyridin-2-yl)-6-((1-hydroxy-2-methylpropan-2-yl)amino)-2-(6-azaspiro[2.5]octan-6-yl)nicotinamide], the IC50 stood at 243 nM.
For the molecule `Cc1cc(NC(=O)c2ccc(NC(C)(C)CO)nc2N2CCC3(CC2)CC3)nc(NC(C)(C)CO)c1` [Example 170, 2-(6-azaspiro[2.5]octan-6-yl)-6-((1-hydroxy-2-methyl-2-propanyl)amino)-N-(6-((1-hydroxy-2-methyl-2-propanyl)amino)-4-methyl-2-pyridinyl)-3-pyridinecarboxamide], the IC50 was determined as 157 nM.
With `CC(C)(CO)Nc1ccc(C(=O)Nc2cc(Cl)cc(N3CCOCC3)n2)c(N2CCC3(CC2)CC3)n1` [Example 152, 2-(6-azaspiro[2.5]oct-6-yl)-N-(4-chloro-6-(4-morpholinyl)-2-pyridinyl)-6-((1-hydroxy-2-methyl-2-propanyl)amino)-3-pyridinecarboxamide], the IC50 was determined as 74.3 nM.
The value for `CC1(O)CCCN(c2cccc(NC(=O)c3ccc(NC(C)(C)CO)nc3N3CCC4(CC3)CC4)n2)C1` (stereo not drawn) [Example 229, 6-((1-hydroxy-2-methylpropan-2-yl)amino)-N-(6-(3-hydroxy-3-methylpiperidin-l-yl)pyridin-2-yl)-2-(6-azaspiro[2.5]octan-6-yl)nicotinamide] was 136 nM; that for `Cc1cc(NC(=O)c2ccc(NC(C)(CO)CO)nc2N2CCC3(CC2)CC3)nc(N2CCOCC2)c1` [Example 184, 2-(6-azaspiro[2.5]octan-6-yl)-6-((1,3-dihydroxy-2-methyl-2-propanyl)amino)-N-(4-methyl-6-(4-morpholinyl)-2-pyridinyl)-3-pyridinecarboxamide] was 62 nM.
